Measurements reported in PubChem BioAssay (NCI).
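Cells were grown in 96-well plates and exposed to each compound for 48 hours at five concentrations; endpoints were interpolated linearly between bracketing concentrations, or set to the highest concentration if not reached. TGI marks complete inhibition of growth.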

Columns and labels:
Assay in all cases: growth of human tumour cells (NCI), 48 h
[1] = system: HCC-2998 colon
[2] = system: HS 578T breast
[3] = system: MDA-MB-435
[4] = system: CAKI-1 renal
[5] = system: SNB-75 CNS
[6] = system: NCI-H226 lung
[7] = system: MALME-3M melanoma
[8] = system: A549 NSCLC
[9] = system: SK-MEL-5 melanoma
[10] = system: NCI/ADR-RES ovarian

Which results are given for `COc1ccc(N=C2C(=Nc3ccc(OC)cc3)N(c3ccc(N(C)C)cc3)C(=S)N2c2ccc(OC)cc2)cc1`?
TGI [1]: > 100 µM; TGI [2]: > 100 µM; TGI [3]: > 100 µM; TGI [4]: > 100 µM; TGI [5]: > 91.8 µM; TGI [6]: > 100 µM; TGI [7]: > 100 µM; TGI [8]: > 100 µM; TGI [9]: > 100 µM; TGI [10]: > 100 µM

What does the source list for `Cc1cc(O)cc(O)c1C(=O)O[C@]1(C)C(=O)C=C2C=C(/C=C/C(=O)O)OC=C2C1=O`?
TGI [1]: > 100 µM; TGI [2]: > 100 µM; TGI [3]: > 100 µM; TGI [4]: > 100 µM; TGI [5]: > 100 µM; TGI [6]: > 100 µM; TGI [7]: > 100 µM; TGI [8]: > 100 µM; TGI [9]: > 100 µM; TGI [10]: > 100 µM

With `O=C1C2=C(SCCS2)C(=O)c2c(Sc3ccc(Cl)cc3)c(Sc3ccc(Cl)cc3)c(Sc3ccc(Cl)cc3)c(Sc3ccc(Cl)cc3)c21` as the compound, how does the TGI [1] read?
Its TGI is over 100 µM.

What about the TGI [2] of the same compound?
The TGI was over 100 µM.

And the TGI [3]?
Its TGI is over 100 µM.

What about the TGI [4] of the same compound?
Its TGI is over 100 µM.

And the TGI [5]?
Its TGI is over 100 µM.

And the TGI [6]?
Its TGI is over 100 µM.

What about the TGI [7] of the same compound?
The TGI was 69.8 µM.

What about the TGI [8] of the same compound?
Its TGI is over 100 µM.

And the TGI [9]?
Its TGI is over 100 µM.

And the TGI [10]?
The TGI was over 100 µM.

What does the source list for `CCOC(=O)c1[nH]c2cccc3c2c1CC[C@H](NC(=O)C(F)(F)F)C3=O`?
TGI [1]: > 100 µM; TGI [2]: 61.8 µM; TGI [3]: > 100 µM; TGI [4]: 28 µM; TGI [5]: 56.7 µM; TGI [6]: > 100 µM; TGI [7]: > 100 µM; TGI [8]: > 100 µM; TGI [9]: > 100 µM; TGI [10]: > 100 µM

With `CN[C@@H](C)[C@@H](O)c1ccccc1` as the compound, how does the TGI [1] read?
Its TGI is over 100 µM.

And the TGI [2]?
The TGI was over 100 µM.

And the TGI [3]?
The TGI was over 100 µM.

And the TGI [4]?
Its TGI is over 100 µM.

What about the TGI [5] of the same compound?
Its TGI is over 100 µM.

What about the TGI [6] of the same compound?
The TGI was over 100 µM.

And the TGI [7]?
Its TGI is over 100 µM.

What about the TGI [8] of the same compound?
Its TGI is over 100 µM.

What about the TGI [9] of the same compound?
Its TGI is over 100 µM.

What about the TGI [10] of the same compound?
Its TGI is over 100 µM.

Which TGI [1] does the source give for `COc1ccc(C2SCC(=O)N2NC(=O)C(C)Oc2ccccc2C)cc1` (stereo not given) here?
Its TGI is over 100 µM.

What about the TGI [2] of the same compound?
The TGI was over 100 µM.

And the TGI [3]?
Its TGI is over 100 µM.

What about the TGI [4] of the same compound?
Its TGI is over 100 µM.

And the TGI [5]?
The TGI was over 100 µM.

What about the TGI [6] of the same compound?
Its TGI is over 100 µM.

What about the TGI [7] of the same compound?
The TGI was over 100 µM.

And the TGI [8]?
The TGI was over 100 µM.

And the TGI [9]?
Its TGI is over 100 µM.

And the TGI [10]?
Its TGI is over 100 µM.

Which TGI [1] does the source give for `Nc1nc(=O)n(C2OC(CO)C(O)C2O)c2ncc(-c3ccc(-c4ccccc4)cc3)nc12` (stereo not given) here?
The TGI was over 100 µM.

What about the TGI [2] of the same compound?
Its TGI is over 100 µM.

What about the TGI [3] of the same compound?
Its TGI is over 100 µM.

What about the TGI [4] of the same compound?
Its TGI is over 100 µM.

And the TGI [5]?
Its TGI is over 100 µM.

And the TGI [6]?
The TGI was 76.3 µM.

And the TGI [7]?
Its TGI is over 100 µM.

And the TGI [8]?
Its TGI is over 100 µM.

What about the TGI [9] of the same compound?
The TGI was over 100 µM.

And the TGI [10]?
The TGI was over 100 µM.

Which TGI [1] does the source give for `O=C1CS[C@@](CC(c2ccc(Cl)cc2)c2ccc(Cl)cc2)(c2ccc(Cl)cc2)N1` here?
The TGI was over 100 µM.

And the TGI [2]?
Its TGI is over 100 µM.

And the TGI [3]?
Its TGI is over 100 µM.

And the TGI [4]?
The TGI was over 100 µM.

What about the TGI [5] of the same compound?
Its TGI is over 100 µM.

What about the TGI [6] of the same compound?
The TGI was 42.2 µM.

And the TGI [7]?
The TGI was 82.6 µM.

And the TGI [8]?
The TGI was over 100 µM.

And the TGI [9]?
Its TGI is 34.6 µM.

What about the TGI [10] of the same compound?
Its TGI is over 100 µM.

For `CC12ON(P(=O)(c3ccccc3)c3ccccc3)C(C)(c3ccccc31)c1ccccc12`, which TGI [1] is on record?
Its TGI is over 100 µM.

What about the TGI [2] of the same compound?
The TGI was over 100 µM.

What about the TGI [3] of the same compound?
Its TGI is over 100 µM.

And the TGI [4]?
Its TGI is over 100 µM.

What about the TGI [5] of the same compound?
Its TGI is over 100 µM.

What about the TGI [6] of the same compound?
The TGI was over 100 µM.

And the TGI [7]?
The TGI was over 100 µM.

And the TGI [8]?
Its TGI is over 100 µM.

What about the TGI [9] of the same compound?
The TGI was over 100 µM.

What about the TGI [10] of the same compound?
Its TGI is over 100 µM.

Which TGI [1] does the source give for `O=[N+]([O-])c1ccc(O)c(/C=N/c2nc(-c3ccccc3)cs2)c1` here?
Its TGI is over 61.4 µM.

What about the TGI [2] of the same compound?
The TGI was 74.6 µM.

What about the TGI [3] of the same compound?
Its TGI is over 100 µM.

What about the TGI [4] of the same compound?
Its TGI is over 100 µM.

And the TGI [5]?
Its TGI is 75.5 µM.

What about the TGI [6] of the same compound?
The TGI was 85.3 µM.

What about the TGI [7] of the same compound?
Its TGI is 74.6 µM.

What about the TGI [8] of the same compound?
The TGI was over 100 µM.

What about the TGI [9] of the same compound?
Its TGI is 34.4 µM.

And the TGI [10]?
Its TGI is over 91.4 µM.

What does the source list for `CCCc1nnc2sc(COc3cc(Cl)c(OCc4nn5c(CCC)nnc5s4)cc3Cl)nn12`?
TGI [1]: > 100 µM; TGI [2]: > 100 µM; TGI [3]: > 100 µM; TGI [4]: > 100 µM; TGI [5]: 45.3 µM; TGI [6]: > 100 µM; TGI [7]: > 100 µM; TGI [8]: > 100 µM; TGI [9]: 32.1 µM; TGI [10]: > 100 µM

`O=[N+]([O-])c1ccc(N2N=C(c3ccc4ccccc4c3O)CC2c2ccc(Cl)cc2)c([N+](=O)[O-])c1` (stereo not given) was tested. Which TGI [1] did it give?
The TGI was over 100 µM.

And the TGI [2]?
The TGI was over 100 µM.

And the TGI [3]?
The TGI was 33 µM.

What about the TGI [4] of the same compound?
The TGI was over 100 µM.

And the TGI [5]?
The TGI was over 100 µM.

What about the TGI [6] of the same compound?
Its TGI is over 100 µM.

And the TGI [7]?
The TGI was over 100 µM.

And the TGI [8]?
The TGI was over 100 µM.

And the TGI [9]?
Its TGI is 63.3 µM.

And the TGI [10]?
The TGI was over 100 µM.

What does the source list for `Cc1cc2oc(C)c(S(=O)(=O)NC(=O)Nc3ccc(Cl)cc3)c(=O)c2c(=O)o1`?
TGI [1]: > 100 µM; TGI [2]: > 100 µM; TGI [3]: > 100 µM; TGI [4]: > 100 µM; TGI [5]: > 100 µM; TGI [6]: > 100 µM; TGI [7]: > 100 µM; TGI [8]: > 100 µM; TGI [9]: > 100 µM; TGI [10]: > 100 µM

Which TGI [1] does the source give for `CCCN(CCC)C1CCc2c(ccc3cc[nH]c23)C1` (stereo not given) here?
The TGI was 59.9 µM.

And the TGI [2]?
The TGI was over 100 µM.

And the TGI [3]?
The TGI was over 100 µM.

What about the TGI [4] of the same compound?
The TGI was over 100 µM.

And the TGI [5]?
The TGI was over 100 µM.

And the TGI [6]?
Its TGI is over 100 µM.

And the TGI [7]?
The TGI was over 100 µM.

And the TGI [8]?
The TGI was over 100 µM.

What about the TGI [9] of the same compound?
The TGI was 41.4 µM.

And the TGI [10]?
The TGI was over 100 µM.

What does the source list for `COC(=O)c1cccc(OC)c1C#Cc1c(OC)cccc1OC`?
TGI [1]: > 100 µM; TGI [2]: > 100 µM; TGI [3]: > 100 µM; TGI [4]: > 100 µM; TGI [5]: > 100 µM; TGI [6]: > 100 µM; TGI [7]: > 100 µM; TGI [8]: > 100 µM; TGI [9]: > 100 µM; TGI [10]: > 100 µM

`CCOC(=O)CCC(NC(=O)Cc1ccc(Oc2nc3ccccc3nc2-c2ccccc2)cc1)C(=O)OCC` (stereo not given) was tested. Which TGI [1] did it give?
The TGI was over 100 µM.

What about the TGI [2] of the same compound?
Its TGI is over 100 µM.

What about the TGI [3] of the same compound?
The TGI was over 100 µM.

What about the TGI [4] of the same compound?
The TGI was over 100 µM.

What about the TGI [5] of the same compound?
Its TGI is over 100 µM.

What about the TGI [6] of the same compound?
The TGI was 78.9 µM.

And the TGI [7]?
The TGI was over 100 µM.

And the TGI [8]?
Its TGI is over 100 µM.

What about the TGI [9] of the same compound?
Its TGI is over 100 µM.

And the TGI [10]?
Its TGI is over 100 µM.

How did the TGI [1] turn out when `CC(=O)N(C(C)=O)n1c(Cc2ccc(C)cc2)nn(C(C)=O)c1=O` was run?
The TGI was over 100 µM.

And the TGI [2]?
Its TGI is over 100 µM.

What about the TGI [3] of the same compound?
Its TGI is over 100 µM.

What about the TGI [4] of the same compound?
The TGI was over 100 µM.

And the TGI [5]?
Its TGI is over 100 µM.

And the TGI [6]?
Its TGI is over 100 µM.

What about the TGI [7] of the same compound?
Its TGI is over 100 µM.

And the TGI [8]?
Its TGI is over 100 µM.

And the TGI [9]?
The TGI was over 100 µM.

And the TGI [10]?
Its TGI is over 100 µM.
